Source: DBAASP
Converted amounts (≈) assume the structure as drawn. Values belong to the compound of their own block, whether it stands above or below them.

Tests used:
Assay in all cases: ≥ marks a high value that may be exact or a test limit, other limits are often not marked, values filed in µg/mL are converted to µM
Bacillus cereus ACM 446 = test system: Bacillus cereus ACM 446
Escherichia coli L361 = test system: Escherichia coli L361
Escherichia coli O9 = test system: Escherichia coli O9
[1] = test system: Listeria monocytogenes NCTC 7973
Pseudomonas fluorescens = test system: Pseudomonas fluorescens
[2] = test system: Salmonella enterica subsp. enterica serovar Salford IMVS 1710
[3] = test system: Staphylococcus aureus NCTC 6571
Enterobacter cloacae = test system: Enterobacter cloacae
[4] = test system: Escherichia coli ATCC 25922
[5] = test system: Escherichia coli ATCC 35218
Escherichia coli UTI89 = test system: Escherichia coli UTI89
[6] = test system: Klebsiella pneumoniae ATCC 700603
[7] = test system: Klebsiella pneumoniae NDM-1
Klebsiella pneumoniae = test system: Klebsiella pneumoniae
[8] = test system: Pseudomonas aeruginosa ATCC 27853
[9] = test system: Pseudomonas aeruginosa PAO1
Vibrio cholerae = test system: Vibrio cholerae
[10] = test system: Bacillus amyloliquefaciens ATCC 23842
[11] = test system: Bacillus cereus ATCC 14579
[12] = test system: Bacillus licheniformis ATCC 14580
[13] = test system: Bacillus subtilis ATCC 6051
[14] = test system: Enterococcus faecalis 1F-1
Enterococcus faecalis A4 = test system: Enterococcus faecalis A4
[15] = test system: Enterococcus faecium 4W-9
[16] = test system: Enterococcus faecium 5F-10
[17] = test system: Proteus mirabilis ATCC 35659
[18] = test system: Salmonella enterica ATCC H9812
[19] = test system: Staphylococcus aureus 215
[20] = test system: Staphylococcus aureus ATCC 29213
Staphylococcus aureus MR = test system: Staphylococcus aureus MR
[21] = test system: Candida albicans NCYC 1467
[22] = test system: Enterococcus faecalis NCTC 12697
[23] = test system: Escherichia coli NCTC 10418
[24] = test system: Klebsiella pneumoniae ATCC 43816
[25] = test system: Staphylococcus aureus ATCC 12493
[26] = test system: Staphylococcus aureus NCTC 10788
Staphylococcus aureus = test system: Staphylococcus aureus
[27] = test system: Candida albicans ATCC 10231
[28] = test system: Escherichia coli KCTC 2223
[29] = test system: Pseudomonas aeruginosa H636
[30] = test system: Salmonella typhimurium KCTC 2370
[31] = test system: Staphylococcus aureus ATCC 15752
[32] = test system: Cronobacter muytjensii ATCC 51329
[33] = test system: Cronobacter sakazakii ATCC BAA-894
[34] = test system: Cronobacter sakazakii DPC 6440
[35] = test system: Cronobacter sakazakii DSM 4485
[36] = test system: Escherichia coli NCIMB 11843
[37] = test system: Klebsiella pneumoniae NCIMB 13218
[38] = test system: Pseudomonas fluorescens NCIMB 9046
[39] = test system: Salmonella enterica subsp. enterica serovar Typhimurium LT2
[40] = test system: Staphylococcus aureus NCTC 8325-4
[41] = test system: Staphylococcus aureus Newman
[42] = test system: Staphylococcus aureus RF122
[43] = test system: Staphylococcus aureus RN4220
[44] = test system: Staphylococcus aureus SA113

SMILES: CC(C)C[C@H](NC(=O)[C@H](CC(C)C)NC(=O)[C@@H](N)CCC(=O)O)C(=O)N[C@@H](CO)C(=O)N[C@@H](C)C(=O)N[C@H](C(=O)N[C@@H](CC(=O)O)C(=O)O)C(C)C [ELLSAVD]
MIC [10]: ≥ 172 µM
MIC [11]: ≥ 172 µM
MIC [12]: ≥ 172 µM
MIC [13]: ≥ 172 µM
MIC [14]: ≥ 172 µM
MIC (Enterococcus faecalis A4): ≥ 172 µM
MIC [15]: ≥ 172 µM
MIC [16]: ≥ 172 µM
MIC [4]: 85.8 µM (≈ 64 µg/mL)
MIC [17]: ≥ 172 µM
MIC [9]: > 172 µM
MIC [18]: ≥ 172 µM
MIC [19]: ≥ 172 µM
MIC [20]: > 172 µM
MIC (Staphylococcus aureus MR): ≥ 172 µM

SMILES: CC(C)C[C@H](NC(=O)[C@H](CCCCN)NC(=O)[C@H](CCCN=C(N)N)NC(=O)[C@H](CCC(N)=O)NC(=O)[C@@H](N)CO)C(=O)N[C@@H](C)C(=O)N[C@@H](C)C(=O)N[C@@H](CCCCN)C(=O)N[C@@H](CC(C)C)C(=O)N[C@H](C(=O)N[C@@H](CO)C(=O)N[C@@H](CCCCN)C(=O)O)[C@@H](C)O [SQRKLAAKLTSK]
MIC [27]: > 32 µM
MIC [28]: ≥ 32 µM
MIC [29]: ≥ 32 µM
MIC [30]: ≥ 32 µM
MIC [31]: ≥ 32 µM

SMILES: CC[C@H](C)[C@H](N)C(=O)N[C@@H](C)C(=O)N[C@@H](C)C(=O)N[C@@H](CCC(N)=O)C(=O)NCC(=O)N[C@@H](CC(C)C)C(=O)N1CCC[C@H]1C(=O)N[C@@H](CCC(N)=O)C(=O)N[C@@H](CCC(=O)O)C(=O)O [IAAQGLPQE]
MIC [32]: ≥ 2500 µM
MIC [33]: ≥ 2500 µM
MIC [34]: ≥ 312 µM
MIC [35]: ≥ 2500 µM
MIC [36]: ≥ 1250 µM
MIC [37]: ≥ 1250 µM
MIC [38]: ≥ 1250 µM
MIC [39]: ≥ 1250 µM
MIC [40]: ≥ 1250 µM
MIC [41]: ≥ 1250 µM
MIC [42]: ≥ 1250 µM
MIC [43]: ≥ 1250 µM
MIC [44]: ≥ 1250 µM

Second part, led by results:

MIC (Bacillus cereus ACM 446): ≥ 100 µM
MIC (Escherichia coli L361): ≥ 50 µM
MIC (Escherichia coli O9): ≥ 60 µM
MIC [1]: ≥ 40 µM
MIC (Pseudomonas fluorescens): ≥ 100 µM
MIC [2]: ≥ 100 µM
MIC [3]: ≥ 100 µM
SMILES: CC[C@H](C)[C@H](NC(=O)[C@H](CO)NC(=O)[C@@H]1CCCN1C(=O)[C@H](C)NC(=O)CNC(=O)[C@H](CC(C)C)NC(=O)[C@H](CCCCN)NC(=O)[C@@H](N)CCCCN)C(=O)N[C@H](C(=O)N[C@@H](CS)C(=O)N[C@H](C(=O)N[C@@H](CCCN=C(N)N)C(=O)N[C@@H](CCCN=C(N)N)C(=O)N[C@@H](C)C(=O)N[C@@H](Cc1ccccc1)C(=O)N[C@@H](C)C(=O)O)C(C)C)[C@@H](C)O [KKLGAPSITCVRRAFA]

MIC (Enterobacter cloacae): 4 µM (≈ 10.4 µg/mL)
MIC [4]: 2 µM (≈ 5.19 µg/mL)
MIC [5]: 2 µM (≈ 5.19 µg/mL)
MIC (Escherichia coli UTI89): 2 µM (≈ 5.19 µg/mL)
MIC [6]: 2 µM (≈ 5.19 µg/mL)
MIC [7]: 2.83 µM (≈ 7.34 µg/mL)
MIC (Klebsiella pneumoniae): 2 µM (≈ 5.19 µg/mL)
MIC [8]: 2 µM (≈ 5.19 µg/mL)
MIC [9]: 2 µM (≈ 5.19 µg/mL)
SMILES: CC[C@H](C)[C@H](NC(=O)[C@@H](NC(=O)[C@@H]1CCCN1C(=O)[C@H](CO)NC(=O)[C@H](CC(C)C)NC(=O)[C@H](CCCCN)NC(=O)[C@H](CCCCN)NC(=O)[C@H](Cc1ccccc1)NC(=O)[C@H](CC(C)C)NC(=O)[C@H](CCCCN)NC(=O)[C@H](CCCCN)NC(=O)[C@H](CC(C)C)NC(=O)[C@H](CCCCN)NC(=O)[C@H](CCCCN)NC(=O)[C@H](CCCN=C(N)N)NC(=O)[C@@H](N)Cc1ccccc1)C(C)C)C(=O)N1CCC[C@H]1C(=O)N[C@@H](CC(C)C)C(=O)N[C@@H](CC(C)C)C(=O)N[C@@H](CCCCN)C(=O)N[C@@H](CC(C)C)C(=O)NCC(N)=O [FRKKLKKLFKKLSPVIPLLKLG]
MIC (Vibrio cholerae): 4 µM (≈ 10.4 µg/mL)

MIC [21]: 2 µM (≈ 5.88 µg/mL)
MIC [22]: ≥ 32 µM
MIC [23]: 4 µM (≈ 11.8 µg/mL)
MIC [24]: 8 µM (≈ 23.5 µg/mL)
MIC [8]: 4 µM (≈ 11.8 µg/mL)
MIC [25]: 2 µM (≈ 5.88 µg/mL)
MIC [26]: 2 µM (≈ 5.88 µg/mL)
MIC (Staphylococcus aureus): 4 µM (≈ 11.8 µg/mL)
SMILES: CC[C@H](C)[C@H](NC(=O)[C@H](CO)NC(=O)[C@H](CCCCN)NC(=O)[C@H](Cc1c[nH]c2ccccc12)NC(=O)[C@H](CC(C)C)NC(=O)[C@H](C)N)C(=O)N[C@@H](CC(C)C)C(=O)N[C@@H](CCCCN)C(=O)N[C@@H](CC(N)=O)C(=O)N[C@H](C(=O)NCC(=O)N[C@@H](CCCCN)C(=O)N[C@@H](C)C(=O)N[C@@H](C)C(=O)NCC(=O)N[C@@H](CCCCN)C(=O)N[C@@H](C)C(=O)N[C@H](C(=O)N[C@@H](CC(C)C)C(=O)N[C@@H](CC(N)=O)C(=O)N[C@@H](C)C(=O)N[C@H](C(=O)N[C@H](C(=O)N[C@@H](CC(=O)O)C(=O)N[C@@H](CCSC)C(=O)N[C@H](C(=O)N[C@@H](CC(N)=O)C(=O)N[C@@H](CCC(N)=O)C(N)=O)C(C)C)[C@@H](C)O)C(C)C)C(C)C)C(C)C [ALWKSILKNVGKAAGKAVLNAVTDMVNQ]
